Results published in US9624229B2, “Pyrimidine-2-amine compounds and their use as inhibitors of JAK kinases” (Rigel Pharmaceuticals, Inc., priority 2008, dated 2017).
Like-named read-outs stand apart in the source and are kept apart here.

Target: Ba/F3 V617F cells (Homo sapiens, UniProt O60674, V617F, cells depend on it)
Assay: Proliferation assay (Cell Titer-Glo, 72 h) utilizing Ba/F3 V617F cells
Type: cell-based, mouse
Method in brief: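 Readout is CellTiter-Glo luminescence after 72 h at 37 °C, giving IC50. Cells: Ba/F3 V617F, 1×10^5 cells/mL in RPMI with 10% FBS, treated in duplicate with 3-fold dilution series made from 5 mM DMSO stock, 1:250 in 5% FBS medium, added at 2×.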

[1] = Ba/F3 V617F cells, proliferation, level of activity given as class symbol, read-out: IC50 (the source's name)
[2] = Ba/F3 V617F cells, proliferation, level of activity to inhibit JAK2, read-out: IC50 (the source's name)
[3] = inhibition of JAK2 activity, proliferation of Ba/F3 V617F cells, read-out: IC50 (the source's name)

Chain of Ba/F3 V617F cells (O60674 whole entry V617F): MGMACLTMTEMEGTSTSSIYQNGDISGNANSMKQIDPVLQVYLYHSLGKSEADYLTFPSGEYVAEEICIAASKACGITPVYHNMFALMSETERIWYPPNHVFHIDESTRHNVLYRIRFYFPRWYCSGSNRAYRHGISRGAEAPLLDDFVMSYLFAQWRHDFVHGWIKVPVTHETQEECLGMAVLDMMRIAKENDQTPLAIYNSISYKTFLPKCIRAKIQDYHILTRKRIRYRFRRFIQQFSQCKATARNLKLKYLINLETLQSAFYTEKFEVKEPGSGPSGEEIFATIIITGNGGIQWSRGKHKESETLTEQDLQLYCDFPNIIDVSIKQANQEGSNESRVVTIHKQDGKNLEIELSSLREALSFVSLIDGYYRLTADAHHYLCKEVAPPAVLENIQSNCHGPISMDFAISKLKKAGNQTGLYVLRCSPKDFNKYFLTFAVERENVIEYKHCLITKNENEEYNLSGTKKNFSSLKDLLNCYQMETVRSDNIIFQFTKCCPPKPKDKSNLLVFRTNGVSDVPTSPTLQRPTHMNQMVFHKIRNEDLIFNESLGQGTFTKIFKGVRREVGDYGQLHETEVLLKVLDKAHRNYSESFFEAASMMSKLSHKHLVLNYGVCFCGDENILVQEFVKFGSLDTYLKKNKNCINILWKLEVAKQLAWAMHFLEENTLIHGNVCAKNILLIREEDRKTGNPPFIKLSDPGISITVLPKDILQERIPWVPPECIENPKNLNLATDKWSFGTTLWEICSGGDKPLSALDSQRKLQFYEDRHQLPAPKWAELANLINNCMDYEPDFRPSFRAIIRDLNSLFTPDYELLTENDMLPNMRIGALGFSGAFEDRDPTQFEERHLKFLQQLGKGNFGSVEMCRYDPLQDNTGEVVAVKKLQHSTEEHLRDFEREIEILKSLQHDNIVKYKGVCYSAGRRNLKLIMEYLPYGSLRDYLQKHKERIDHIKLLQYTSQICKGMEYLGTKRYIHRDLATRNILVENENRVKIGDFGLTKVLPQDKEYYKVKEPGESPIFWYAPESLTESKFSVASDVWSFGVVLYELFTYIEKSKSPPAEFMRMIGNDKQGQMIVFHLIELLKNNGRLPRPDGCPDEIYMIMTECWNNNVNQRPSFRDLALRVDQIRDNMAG

Structure (SMILES) | GI50 [1] [µM] | GI50 [2] [µM] | also measured
CS(=O)(=O)N1C[C@@H]2C[C@H]1CN2c1ccc(Nc2nccc(-c3ccc(N4CCOCC4)nc3)n2)cc1C#N [compound 117, 4-(6-(morpholin-4-yl)pyridin-3-yl)-N-(3-cyano-4-((1S,4S)-5-methylsulfonyl-2,5-diazabicyclo[2.2.1]heptan-2-yl)phenyl)pyrimidin-2-amine] |  | < 1 | 
CN1C[C@@H]2C[C@H]1CN2c1ccc(Nc2nccc(-c3ccc4c(c3)CCCC(=O)N4)n2)cc1C#N [compound 272, 4-(2-oxo-2,3,4,5-tetrahydro-1H-benzo[b]azepin-7-yl)-N-(3-cyano-4-((1S,4S)-5-methyl-2,5-diazabicyclo[2.2.1]heptan-2-yl)phenyl)pyrimidin-2-amine] | < 1 |  | 
Cc1cc(Nc2nccc(-c3cnc(NC(=O)C4CC4)nc3)n2)ccc1N1C[C@@H]2C[C@H]1CN2C [compound 44, 4-(2-((cyclopropyl)carbonylamino)-pyrimidin-5-yl)-N-(3-methyl-4-((1S,4S)-5-methyl-2,5-diazabicyclo[2.2.1]heptan-2-yl)phenyl)pyrimidin-2-amine] |  | < 1 | 
CN1C[C@@H]2C[C@H]1CN2c1ccc(Nc2nccc(-c3ccc(N4CCOCC4)nc3)n2)cc1C(F)(F)F [compound 97, 4-(6-(morpholin-4-yl)pyridin-3-yl)-N-(3-trifluoromethyl-4-((1S,4S)-5-methyl-2,5-diazabicyclo[2.2.1]heptan-2-yl)phenyl)pyrimidin-2-amine] |  | < 1 | 
Cc1cc(Nc2nccc(-c3cnc4c(c3)OCCN4C)n2)cnc1N1C[C@@H]2C[C@H]1CN2C [compound 65, 4-(4-methyl-3,4-dihydro-2H-pyrido[3,2-b][1,4]oxazin-7-yl)-N-(5-methyl-6-((1S,4S)-5-methyl-2,5-diazabicyclo[2.2.1]heptan-2-yl)pyridin-3-yl)pyrimidin-2-amine] |  |  | GI50 [3]: < 1 µM
Cc1cc(Nc2nccc(-c3ccc(NC(=O)C(C)(C)C)cc3)n2)cnc1N1C[C@@H]2C[C@H]1CN2C [compound 131, 4-(4-(t-butylcarbonylamino)phenyl)-N-(5-methyl-6-((1S,4S)-5-methyl-2,5-diazabicyclo[2.2.1]heptan-2-yl)pyridin-3-yl)pyrimidin-2-amine] |  |  | GI50 [3]: < 1 µM
Cc1cc(Nc2nccc(-c3ccc(NCCCN(C)C)nc3)n2)ccc1N1C[C@@H]2C[C@H]1CN2C [compound 198, 4-(6-(3-dimethylamino)propylaminopyridin-3-yl)-N-(3-methyl-4-((1S,4S)-5-methyl-2,5-diazabicyclo[2.2.1]heptan-2-yl)phenyl)pyrimidin-2-amine] | 1 to 10 |  | 
CN1C[C@H]2C[C@@H]1CN2c1ccc(Nc2nccc(-c3cnc4c(c3)OC(C)(C)C(=O)N4)n2)cc1F [compound 73, 4-(2,2-dimethyl-3-oxo-3,4-dihydro-2H-pyrido[3,2-b][1,4]oxazin-7-yl)-N-(3-fluoro-4-((1R,4R)-5-methyl-2,5-diazabicyclo[2.2.1]heptan-2-yl)phenyl)pyrimidin-2-amine] |  | < 1 | 
CN(C)c1ccc(-c2ccnc(Nc3ccc(N4C[C@@H]5C[C@H]4CN5C)nc3)n2)cc1 [compound 56, 4-(4-(dimethylamino)phenyl)-N-(6-((1S,4S)-5-methyl-2,5-diazabicyclo[2.2.1]heptan-2-yl)pyridin-3-yl)pyrimidin-2-amine] |  |  | GI50 [3]: 1 to 10 µM
Cc1cc(Nc2nccc(-c3ccc(N4CCOCC4)nc3)n2)ccc1N1CC2(C)CN(C)CC(C)(C1)C2 [compound 75, 4-(6-(morpholin-4-yl)pyridin-3-yl)-N-(3-methyl-4-(1,5,7-trimethyl-3,7-diazabicyclo[3.3.1]nonan-3-yl)phenyl)pyrimidin-2-amine] |  | < 1 | 
Cc1cc(Nc2ncc(F)c(-c3ccc(N(C)C)nc3)n2)ccc1N1C[C@@H]2C[C@H]1CN2C [compound 4, 4-(6-(N,N-dimethylamino)pyridin-3-yl)-5-fluoro-N-(3-methyl-4-((1S,4S)-5-methyl-2,5-diazabicyclo[2.2.1]heptan-2-yl)phenyl)pyrimidin-2-amine] |  | < 1 | 
Cc1cc(-c2ccnc(Nc3cnc(N4C[C@@H]5C[C@H]4CN5C)c(C)c3)n2)cnc1N1CCOCC1 [compound 64, 4-(5-methyl-6-(morpholin-4-yl)pyridin-3-yl)-N-(5-methyl-6-((1S,4S)-5-methyl-2,5-diazabicyclo[2.2.1]heptan-2-yl)pyridin-3-yl)pyrimidin-2-amine] |  |  | GI50 [3]: < 1 µM
CS(=O)(=O)N1C[C@@H]2C[C@H]1CN2c1ccc(Nc2nccc(-c3ccc(N4CCOCC4)nc3)n2)cc1Cl [compound 257, 4-(6-(morpholin-4-yl)pyridin-3-yl)-N-(3-chloro-4-((1S,4S)-5-(methylsulfonyl)-2,5-diazabicyclo[2.2.1]heptan-2-yl)phenyl)pyrimidin-2-amine] | < 1 |  | 
CCCNc1ccc(-c2ccnc(Nc3ccc(N4CC5(C)CN(C)CC(C)(C4)C5)c(C)c3)n2)cn1 [compound 213, 4-(6-(propylamino)pyridin-3-yl)-N-(3-methyl-4-(1,5,7-trimethyl-3,7-diazabicyclo[3.3.1]nonan-3-yl)phenyl)pyrimidin-2-amine] | < 1 |  | 
CN1CC2(C)CN(c3ccc(Nc4nccc(-c5ccc(N6CCOCC6)nc5)n4)cc3F)CC(C)(C1)C2 [compound 85, 4-(6-(morpholin-4-yl)pyridin-3-yl)-N-(3-fluoro-4-(1,5,7-trimethyl-3,7-diazabicyclo[3.3.1]nonan-3-yl)phenyl)pyrimidin-2-amine] |  | < 1 | 

More lines, main results first:

GI50 [1] [µM] | GI50 [2] [µM] | Structure (SMILES) | also measured
< 1 |  | Cc1cc(Nc2nccc(-c3ccc(N4CCOCC4)nc3)n2)ccc1N1CCN2CC[C@H]1C2 [compound 277, 4-(6-(morpholin-4-yl)pyridin-3-yl)-N-(3-methyl-4-((S)-1,4-diazabicyclo[3.2.1]octan-4-yl)phenyl)pyrimidin-2-amine] | 
 | < 1 | Cc1cc(Nc2nccc(-c3ccc4nccn4c3)n2)ccc1N1CCN2CCC1C2 (stereo not shown) [compound 123, 4-(imidazo[1,2-a]pyridin-6-yl)-N-(3-methyl-4-(1,4-diazabicyclo[3.2.1]octan-4-yl)phenyl)pyrimidin-2-amine] | 
 | 1 to 10 | Cc1cc(Nc2nccc(-c3cnc(N4CCOCC4)nc3)n2)ccc1N1C[C@@H]2C[C@H]1CO2 [compound 42, 4-(2-(morpholin-4-yl)pyrimidin-5-yl)-N-(3-methyl-4-((1S,4S)-5-oxa-2-azabicyclo[2.2.1]heptan-2-yl)phenyl)pyrimidin-2-amine] | 
< 1 |  | Cc1cc(Nc2nccc(-c3ccc(N4CCSCC4)nc3)n2)ccc1N1C[C@@H]2C[C@H]1CN2C [compound 230, 4-(6-(thiamorpholin-4-yl)pyridin-3-yl)-N-(3-methyl-4-((1S,4S)-5-methyl-2,5-diazabicyclo[2.2.1]heptan-2-yl)phenyl)pyrimidin-2-amine] | 
< 1 |  | Cc1cc(Nc2nccc(-c3ccc(N4CCOC(CN(C)C)C4)nc3)n2)ccc1N1C[C@@H]2C[C@H]1CN2C (stereo partly drawn) [compound 189, 4-(6-(2-(dimethylamino)methylmorpholin-4-yl)pyridin-3-yl)-N-(3-methyl-4-((1S,4S)-5-methyl-2,5-diazabicyclo[2.2.1]heptan-2-yl)phenyl)pyrimidin-2-amine] | 
 | < 1 | CNC(=O)c1ccc(-c2ccnc(Nc3ccc(N4C[C@@H]5C[C@H]4CN5C)c(C)c3)n2)cn1 [compound 50, 4-(6-(methylaminocarbonyl)pyridin-3-yl)-N-(3-methyl-4-((1S,4S)-5-methyl-2,5-diazabicyclo[2.2.1]heptan-2-yl)phenyl)pyrimidin-2-amine] | 
< 1 |  | CCCNc1ccc(-c2ccnc(Nc3ccc(N4C[C@@H]5C[C@H]4CN5C)c(C)c3)n2)cn1 [compound 188, 4-(6-(propylamino)pyridin-3-yl)-N-(3-methyl-4-((1S,4S)-5-methyl-2,5-diazabicyclo[2.2.1]heptan-2-yl)phenyl)pyrimidin-2-amine] | 
 | < 1 | Cc1cc(Nc2nccc(-c3cnc4c(c3)OC(C)(C)C(=O)N4)n2)ccc1N1CCN2CCC1CC2 [compound 160, 4-(2,2-dimethyl-3-oxo-3,4-dihydro-2H-pyrido[3,2-b][1,4]oxazin-7-yl)-N-(3-methyl-4-(1,4-diazabicyclo[3.2.2]nonan-4-yl)phenyl)pyrimidin-2-amine] | 
< 1 |  | Cc1cc(Nc2nccc(-c3ccc(N4C[C@H]5C[C@@H]4CO5)nc3)n2)ccc1N1C[C@@H]2C[C@H]1CN2C [compound 265, 4-(6-((1R,4R)-2-oxa-5-azabicyclo[2.2.1]heptan-5-yl)pyridin-3-yl)-N-(3-methyl-4-((1S,4S)-5-methyl-2,5-diazabicyclo[2.2.1]heptan-2-yl)phenyl)pyrimidin-2-amine] | 
 | 1 to 10 | Cc1cc(Nc2nccc(-c3ccc(NS(C)(=O)=O)nc3)n2)ccc1N1C[C@@H]2C[C@H]1CN2C [compound 151, 4-(6-(methylsulfonylamino)pyridin-3-yl)-N-(3-methyl-4-((1S,4S)-5-methyl-2,5-diazabicyclo[2.2.1]heptan-2-yl)phenyl)pyrimidin-2-amine] | 
< 1 |  | CCCNc1ccc(-c2ccnc(Nc3ccc(N4C[C@@H]5C[C@H]4CO5)c(C)c3)n2)cn1 [compound 202, 4-(6-(propylamino)pyridin-3-yl)-N-(3-methyl-4-((1S,4S)-5-oxa-2-azabicyclo[2.2.1]heptan-2-yl)phenyl)pyrimidin-2-amine] | 
 | 1 to 10 | Cc1cc(Nc2nccc(-c3ccc(N4CCOCC4)nc3)n2)ccc1N1C[C@@H]2C[C@H]1CN2CC(F)(F)F [compound 36, 4-(6-(morpholin-4-yl)pyridin-3-yl)-N-(3-methyl-4-((1S,4S)-5-(2,2,2-trifluoroethyl)-2,5-diazabicyclo[2.2.1]heptan-2-yl)phenyl)pyrimidin-2-amine] | 
 | < 1 | Cc1cc(Nc2nccc(-c3ccc4cc[nH]c4c3)n2)ccc1N1C[C@@H]2C[C@H]1CN2C [compound 21, 4-(1H-indol-6-yl)-N-(3-methyl-4-((1S,4S)-5-methyl-2,5-diazabicyclo[2.2.1]heptan-2-yl)phenyl)pyrimidin-2-amine] | 
